Where “and” joins values, the source holds several entries; their conditions need not be identical. Equal entries are not always repeated. Marks after values point to notes of the source that are not given here.
Tests used:
[1] = Albert & Serjeant, 1984; corrected for an ionic strength of 0.15 M; cited from earlier work
physchem [2] = experiment: physchem
[3] = pKa by continuous titration, apparatus of FIG. 8, optimised buffers, TFA or 1st derivative data processing; conditions: for pKa (1st Deriv.): first derivative method
[4] = pKa by continuous titration, linear pH gradient, apparatus of FIG. 2, 1st derivative peak time read from standards calibration curve; type: physicochemical; conditions: from standards calibration curve via time to peak maximum of 1st derivative, gradient over 4 minutes, FIG. 2 apparatus
Method: The following pKa determination experiment was performed on this apparatus.
The two buffers have a common component to which an acidic component is added to form buffer A and a basic component is added to form buffer B. The buffers were made up as follows:
The sample solution was kept constant at 20%. The HP1050 pump was used again with buffer B introduced via channel B and buffer A via channel C. The flow rate of the test mixture stream from the mixer to the detector was 1 cm^3 min^−1.
The calibration results are set out below: Time to peak maximum is from the start of the instrument cycle (when the autosampler first goes into a new sample container).

[5] = test solutes; potentiometric titration on Sirius PCA 101 instrument in 0.15 KCl
Method: (§1) The absorbance changes at 240 nm, 265 nm, 290 nm and 315 nm were recorded and the peak maxima of the 1st derivative plots determined. […] Compounds of known pKa were also determined as test solutes.

physchem [6] = experiment: physchem; remark: listed apart in the source
Method: as §1

[7] = cited from earlier work
[8] = run with calibration curve pH=−0.022×time+12.66

SMILES: O=C(O)/C=C/c1ccccc1 [Trans-cinnamic acid]
- pKa (lit. data) [1]: 4.20^b
- pKa (physchem [2]): 4.15 ± 0.01

SMILES: NCCCn1ccnc1 [1-(3-Aminopropyl)imidazole, 1-(3-Aminopropyl) imidazole]
- pKa (1st Deriv.) [3, 8]: 5.81 ± 0.40
- pKa (physchem [2]): 5.73 ± 0.08

SMILES: Oc1cccc(Cl)c1 [3-Cl phenol]
- pKa Derived [4]: 8.79 and 8.78
- Known pKa [5]: 8.81

SMILES: Nc1cccc(C(=O)O)c1 [3-Aminobenzoic acid]
- pKa (physchem [2]): 3.39 ± 0.08

SMILES: Oc1ccc(Cl)cc1 [4-Cl phenol, 4-Chlorophenol]
- pKa ([4]; buffered linear pH gradient (apparatus of FIG. 2), read-out: pKa Derived): 9.14
- pKa Derived [4]: 9.13
- pKa (1st Deriv.) ([3]; run with calibration curve pH=−0.021×time+12.49): 9.16 ± 0.08
- pKa (1st Deriv.) [3, 8]: 9.25 ± 0.07
- pKa (TFA) ([3]; run with calibration curve pH=−0.022×time+12.66, target factor analysis): 9.04 ± 0.01
- pKa (physchem [6]; 0.15 KCl solution): 9.14
- pKa (physchem [2]): 9.03 ± 0.03

SMILES: CC(C)NCC(O)c1ccc(NS(C)(=O)=O)cc1 (centres unmarked) [Sotalol]
- pKa (physchem [2]): 7.96 ± 0.03

SMILES: NCCc1c[nH]c2ccccc12 [Tryptamine]
- pKa (1st Deriv.) [3, 8]: 10.05 ± 0.10
- pKa (physchem [2]): 9.67 ± 0.03

SMILES: O=C1OC(c2ccc(O)cc2)(c2ccc(O)cc2)c2ccccc21 [Phenolphthalein]
- pKa (physchem [2]): 8.84 ± 0.05

SMILES: N#Cc1ccc(O)cc1 [4-CN phenol]
- pKa Derived [4]: 7.62 and 7.58
- Known pKa [5]: 7.7

SMILES: O=C(O)c1ccccc1C(=O)O [phthalate 1, potassium hydrogen phthalate]
- pKa (physchem [6]): 4.82

SMILES: NCCc1c[nH]c2ccc(O)cc12 [Serotonin]
- pKa (lit. data) [1]: 9.80^a and 10.04^a
- pKa (1st Deriv.) [3, 8]: 10.03 ± 0.08
- pKa (physchem [2]): 10.09 ± 0.03

SMILES: O=C(O)C/C=C/c1ccccc1 [Trans-styrylacetic acid]
- pKa (physchem [2]): 4.57 ± 0.05

SMILES: O=C(O)Cc1ccccc1 [Phenylacetic acid]
- pKa (lit. data) [1]: 4.07^b
- pKa (physchem [2]): 4.34 ± 0.01

SMILES: Oc1ccccc1Cl [2-Cl phenol]
- pKa Derived [4]: 8.15 and 8.16
- Known pKa [5]: 8.24

SMILES: O=[N+]([O-])c1ccc(O)cc1 [4-NO2phenol, p-nitrophenol]
- pKa (Standard Curve) ([7]; standards STD1, STD2 of Example 3): 6.869
- pKa (calibration standards) ([7]; standards for calibration curves of the FIG. 8 runs): 6.869
- pKa (physchem [6]; 0.15 KCl solution): 6.89

SMILES: NCc1ccccc1 [Benzylamine]
- pKa (lit. data) [1]: 9.34^a
- pKa (physchem [2]): 9.23 ± 0.1

SMILES: NCCc1ccccc1 [Phenylethylamine]
- pKa (physchem [2]): 9.64 ± 0.07

Reference: patent US6913930B2, “Analytical method and apparatus therefor involving continuous titration” (Glaxo Wellcome Inc., priority 1997, dated 2005)
